Where a name gives a salt, the structure may show the parent alone. Read-outs that look alike come from different tables or passages of the source.
Tests used:
[1] = molecular target: PIM-1 (Homo sapiens (Human), UniProt P11309); assay: PIM-1 Enzyme Assay; format: biochemical
Experimental: The amount of radiolabeled product is then measured by liquid scintillation counting. The final buffer conditions were as follows: 20 mM K^+MOPS, pH 7.4, 10 mM MgCl2, 0.005% Tween-20, 1 mM DTT. […] Incubations were carried out for 60 min at 22° C. and quenched with 75 μL of 200 mM H3PO4, filtered through a Whatman P81 plate and washed (1×200 μL and 5×100 μL ) with 200 mM H3PO4. Liquid scintillation cocktail (50 μL ) was then added per well, and the plate was counted for 30 s/well using a TopCount NXT.
One-μL aliquots of these were then transferred to the assay mixtures above to give a final concentration of DMSO of 2%. […] For each plate, percent of control (POC) values were calculated for each well. IC50's were estimated from the POC's using a standard 4-parameter logistic model. The IC50 is defined as the concentration of inhibitor at which the POC equals 50 for the fitted curve.

[2] = molecular target: GST-tagged recombinant full-length human PIM-2 (Homo sapiens (Human), UniProt Q9P1W9); assay: PIM-2 Enzyme Assay
[3] = read-out: PIM-2 IC50, 4 μM ATP, […] PIM-2

PIM-1, sequence (P11309 whole entry, species assumed): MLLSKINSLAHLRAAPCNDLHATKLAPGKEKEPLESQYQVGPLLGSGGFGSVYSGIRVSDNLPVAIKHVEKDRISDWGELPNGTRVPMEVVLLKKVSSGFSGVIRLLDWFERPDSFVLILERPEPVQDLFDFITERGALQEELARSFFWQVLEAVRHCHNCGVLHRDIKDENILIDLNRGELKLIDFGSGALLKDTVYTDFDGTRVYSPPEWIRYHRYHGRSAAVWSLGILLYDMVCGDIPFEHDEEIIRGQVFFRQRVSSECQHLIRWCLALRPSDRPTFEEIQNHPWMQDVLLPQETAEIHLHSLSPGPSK
GST-tagged recombinant full-length human PIM-2, sequence (Q9P1W9 whole entry): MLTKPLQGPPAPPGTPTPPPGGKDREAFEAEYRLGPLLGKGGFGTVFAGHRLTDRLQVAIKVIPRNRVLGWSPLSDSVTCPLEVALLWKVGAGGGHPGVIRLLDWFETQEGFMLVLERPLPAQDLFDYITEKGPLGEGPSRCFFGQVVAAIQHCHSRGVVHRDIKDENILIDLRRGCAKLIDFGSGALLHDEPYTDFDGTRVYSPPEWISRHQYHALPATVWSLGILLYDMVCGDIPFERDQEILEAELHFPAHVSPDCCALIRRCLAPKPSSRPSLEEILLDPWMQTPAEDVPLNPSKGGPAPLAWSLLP

With F[C@@H]1CNCC[C@@H]1Oc1cccc2ccc(-c3nnc4ccc(Br)cn34)nc12 (relative stereo) [Example 78, 2-(6-bromo-[1,2,4]triazolo[4,3-a]pyridin-3-yl)-8-((cis)-3-fluoropiperidin-4-yloxy)quinoline dihydrochloride] the IC50 ([1]; 35 μM ATP, 0.25 nM PIM-1) was 8 nM and the IC50 ([2]; read-out: PIM-2 IC50) was 1280 nM.

Work on F[C@@H]1CNCC[C@@H]1Oc1cccc2ccc(-c3nnc4ccc(C5CC5)cn34)nc12 (relative stereo) [Example 80, 2-(6-cyclopropyl-[1,2,4]triazolo[4,3-a]pyridin-3-yl)-8-((cis)-3-fluoropiperidin-4-yloxy)quinoline dihydrochloride] yielded an IC50 ([1]; 35 μM ATP, 0.25 nM PIM-1) of 2 nM and an IC50 [2, 3] of 1160 nM.

F[C@@H]1CNCC[C@@H]1Oc1cccc2ccc(-c3nnc4ccc(-c5ccccc5)cn34)nc12 (relative stereo) [Example 82, 8-((cis)-3-fluoropiperidin-4-yloxy)-2-(6-phenyl-[1,2,4]triazolo[4,3-a]pyridin-3-yl)quinoline dihydrochloride] showed an IC50 [1] of 3 nM and an IC50 [2, 3] of 1040 nM.

In the case of F[C@@H]1CCNCC[C@H]1Oc1cccc2ccc(-c3nnc4ccc(C5CC5)cn34)nc12 (relative stereo) [Example 98, 2-(6-cyclopropyl-[1,2,4]triazolo[4,3-a]pyridin-3-yl)-8-((trans)-5-fluoroazepan-4-yloxy)quinoline dihydrochloride], the IC50 ([1]; 35 μM ATP, 0.25 nM PIM-1) is reported as 0.7 nM and the IC50 [2, 3] is reported as 661 nM.

Work on N#Cc1ccc2nnc(-c3ccc4cccc(O[C@@H]5CCNCC[C@H]5F)c4n3)n2c1 (relative stereo) [Example 101, 3-(8-((trans)-5-fluoroazepan-4-yloxy)quinolin-2-yl)-[1,2,4]triazolo[4,3-a]pyridine-6-carbonitrile dihydrochloride] yielded an IC50 ([1]; 35 μM ATP, 0.25 nM PIM-1) of 13 nM and an IC50 [2, 3] of 1000 nM.

Work on Fc1ccc2nnc(-c3ccc4cccc(O[C@@H]5CCNCC[C@H]5F)c4n3)n2c1 (relative stereo) [Example 102, 2-(6-fluoro-[1,2,4]triazolo[4,3-a]pyridin-3-yl)-8-((trans)-5-fluoroazepan-4-yloxy)quinoline dihydrochloride] yielded an IC50 [1] of 4.9 nM and an IC50 [2, 3] of 440 nM.

For CN1CC[C@@H](F)[C@H](Oc2cccc3ccc(-c4nnc5ccccn45)nc23)CC1 (relative stereo) [Example 118, 2-([1,2,4]triazolo[4,3-a]pyridin-3-yl)-8-((trans)-5-fluoro-1-methylazepan-4-yloxy)quinoline], the IC50 ([1]; 35 μM ATP, 0.25 nM PIM-1) was 3 nM and the IC50 [2, 3] was 330 nM.

For CN(C)CC(C)(C)COc1cccc2ccc(-c3nnc4ccccn34)nc12 [Example 21, 3-(2-([1,2,4]triazolo[4,3-a]pyridin-3-yl)quinolin-8-yloxy)-N,N,2,2-tetramethylpropan-1-amine], the IC50 [2, 3] was 1350 nM.

CC(C)(C)COc1cccc2ccc(-c3nnc4ccccn34)nc12 [Example 23, 2-([1,2,4]triazolo[4,3-a]pyridin-3-yl)-8-(neopentyloxy)quinoline] gave an IC50 [2, 3] of 144 nM.

Work on NCC(F)(F)COc1cccc2ccc(-c3nnc4ccccn34)nc12 [Example 41, 3-(2-([1,2,4]triazolo[4,3-a]pyridin-3-yl)quinolin-8-yloxy)-2,2-difluoropropan-1-amine] yielded an IC50 [2, 3] of 182 nM.

Work on N[C@H]1CC[C@@H](Oc2cccc3ccc(-c4nnc5ccccn45)nc23)CC1 [Example 42, (cis)-4-(2-([1,2,4]triazolo[4,3-a]pyridin-3-yl)quinolin-8-yloxy)cyclohexanamine] yielded an IC50 ([2]; PIM-2 IC50 (nM), 4 μM ATP, […] PIM-2) of 22 nM.

For CCC(CC)(CO)COc1cccc2ccc(-c3nnc4ccccn34)nc12 [Example 131], the IC50 [2, 3] was 1000 nM.

Work on CC(C)(CCN)COc1cccc2ccc(-c3nnc4ccccn34)nc12 [Example 132, 4-(2-([1,2,4]triazolo[4,3-a]pyridin-3-yl)quinolin-8-yloxy)-3,3-dimethylbutan-1-amine] yielded an IC50 [2, 3] of 76.5 nM.

CC(C)(CNCC(F)(F)F)COc1cccc2ccc(-c3nnc4ccccn34)nc12 [Example 136, 3-(2-([1,2,4]triazolo[4,3-a]pyridin-3-yl)quinolin-8-yloxy)-2,2-dimethyl-N-(2,2,2-trifluoroethyl)propan-1-amine] gave an IC50 [2, 3] of 362 nM.

— patent US8575145B2, “Triazolopyridine compounds as PIM kinase inhibitors” (Array BioPharma Inc., priority 2008, dated 2013)
